# B1: angiopoietin-2: Tie2 ligand cytokine (Prospec) (protein, UniProt O15123 19-496, looked up)
# Angiopoietin-2: YNNFRKSMDSIGKKQYQVQHGSCSYTFLLPEMDNCRSSSSPYVSNAVQRDAPLEYDDSVQRLQVLENIMENNTQWLMKLENYIQDNMKKEMVEIQQNAVQNQTAVMIEIGTNLLNQTAEQTRKLTDVEAQVLNQTTRLELQLLEHSLSTNKLEKQILDQTSEINKLQDKNSFLEKKVLAMEDKHIIQLQSIKEEKDQLQVLVSKQNSIIEELEKKIVTATVNNSVLQKQQHDLMETVNNLLTMMSTSNSAKDPTVAKEEQISFRDCAEVFKSGHTTNGIYTLTFPNSTEEIKAYCDMEAGGGGWTIIQRREDGSVDFQRTWKEYKVGFGNPSGEYWLGNEFVSQLTNQQRYVLKIHLKDWEGNEAYSLYEHFYLSSEELNYRIHLKGLTGTAGKISSISQPGNDFSTKDGDNDKCICKCSQMLTGGWWFDACGPSNLNGMYYPQRQNTNKFNGIKWYYWKGSGYSLKATTMMIRPADF
# B2: PlGF: ischemia-induced cytokine (protein, UniProt P49763 19-221, looked up)
# Placenta growth factor: LPAVPPQQWALSAGNGSSEVEVVPFQEVWGRSYCRALERLVDVVSEYPSEVEHMFSPSCVSLLRCTGCCGDENLHCVPVETANVTMQLLKIRSGDRPSYVELTFSQHVRCECRHSPGRQSPDMPGDFRADAPSFLPPRRSLPMLFRMEWGCALTGSQSAVWPSSPVPEEIPRMHPGRNGKKQQRKPLREKMKPERCGDAVPRR
# B3: PDGFB: platelet-derived growth factor beta protein (protein, UniProt P01127 82-190, looked up)
# Platelet-derived growth …: SLGSLTIAEPAMIAECKTRTEVFEISRRLIDRTNANFLVWPPCVEVQRCSGCCNNRNVQCRPTQVQLRPVQVRKIEIVRKKPIFKKATVTLEDHLACKCETVAAARPVT
# How the values were obtained:
# [1] = system: hCASMC (Human coronary artery smooth muscle cells); experiment: SMC migration (Transwell) toward PHD2+/- macrophages; format: cell-based; settings: AMD3100 1 μg/ml, imatinib 2.5 μg/ml, alone or combined
# Method: (§1) Cell Migration and Viability Assays: Migration and proliferation of SMCs and ECs were assessed by using 8 μm-pore Transwell peimeable plate for migration assays and 0.4 μm-pore Transwell permeable plate for proliferation assays (Corning Life Science). To determine cell migration toward the factors secreted by pMØ, pMØ were cultured in the lower chamber for twelve hours in RPMI 1% FBS or in M-199 1% FBS (migration assay), or 48 hours in DMEM-F12 1% FBS or in M-199 1% FBS (proliferation assay). For migration assays, hCASMC (Human coronary artery smooth muscle cells; from Lonza) and HUVEC (Human umbilical vein endothelial cells; from Lonza) were starved for twelve hours in their own medium at 1% FBS and, therefore, seeded in the upper chamber (5×10^3 cells in 200 μl of medium 1% FBS), with or without AMD3100 (1 μg/ml, Sigma-Aldrich, Dorset, U.K) and imatinib (2.5 μg/ml, Novartis). SMCs and HUVECs were incubated for two days or 24 hours, respectively, and migrated cells were fixed with 4% PFA, stained with 0.25% crystal violet/50% methanol and counted under the microscope. VEGF (100 ng/mL, R&D), PDGFB (100 ng/mL, R&D) or SDF 1 (100 ng/mL, R&D) were used as positive controls. […] The cell proliferative ability was then analyzed using WST-1 Cell Proliferation Assay (Roche Applied Biosciences) according to the manufacturer instructions after 24 hours of coculture with the pMØ. […]
# [2] = system: secondary and tertiary collateral arterioles; experiment: Collateral vessel formation in bone marrow transplanted mice treated with AMD3100/imatinib (gelatin bismuth angiography); format: in vivo; settings: for increased formation of second generation collateral branches / third generation collaterals: HE→WT mice, daily AMD3100 5 mg/kg or imatinib 50 mg/kg alone; for number of collateral branch arteries: WT→WT mice, alone or in combination
# Method: Mouse Model of Hindlimb Ischemia: To induce hind limb ischemia, unilateral or bilateral ligations of the femoral artery and vein (proximal to the popliteal artery) and the cutaneous vessels branching from the caudal femoral artery side branch were performed without damaging the nervus femoralis (Luttun et al., Nat. Med. 8:831-840, 2002). By using this procedure, collateral flow to adductor muscles is preserved via arterioles branching from the femoral artery, therefore, 50% up to 60% of perfusion is preserved by this method. Two superficial preexisting collateral arterioles connecting the femoral and saphenous arteries were used for analysis. Functional perfusion measurements of the collateral region were performed using a Lisca PIM II camera (Gambro). Gelatin bismuth-based angiography was perfottned as described (Carmeliet et al., Nat. Med. 7:575-583, 2001) and analyzed by photoangiographs (Nikon D1 digital camera). Collateral side branches were categorized as follows: second-generation collateral arterioles directly branched off from the main collateral, whereas third-generation collateral arterioles were orientated perpendicularly to the second-generation branches. The number of secondary and tertiary collateral arterioles was counted. After perfusion-fixation, the muscle tissue between the two superficial collateral arterioles (adductor) was post-fixed in 2% paraformaldehyde (PFA) and paraffin-embedded, and were morphometrically analyzed. An endurance treadmill-running test was perfatmed at 12, 24, 48, and 72 hours after bilateral femoral artery ligation.
# (§2) Bone Marrow (BM) Transplantation and Hematological Analysis: Balb/c WT and PHD2^+/− recipient mice were irradiated with 7.5 Gy. Subsequently, 5×10^6 bone marrow cells from green fluorescent protein^+ (GFP^+) WT or GFP^+ PHD2^+/− mice were injected intravenously via the tail vein. After one week, saline or AMD3100 (5 mg/kg) was administered intravenously and saline or imatinib ([…]) was administered by oral gavage for four weeks. Femoral artery ligation, treadmill running test and bismuth angiography were performed at six weeks after bone marrow reconstitution. Red and white blood cell count was determined using a hemocytometer on peripheral blood collected in heparin with capillary pipettes by retro-orbital bleeding. To assess the effect of acute deletion of macrophage-borne PHD2 on arteriogenesis, PHD2^Rosa26CreERT;lox/wt bone marrows were transplanted into lethally irradiated WT recipient mice. After five weeks, transplanted mice were injected i.p. with tamoxifen (1 mg/mouse; Sigma) or vehicle for five days. TEM quantification and femoral artery ligation were performed ten days after tamoxifen treatment as explained above. The bone marrow of PHD2^WT;Tie2:GFP or PHD2^HE;Tie2:GFP mice was transplanted in lethally irradiated WT mice. After five weeks, mice were injected systemically (5×10^11 vp) and locally (5×10^9 vp in two points of the adductor) with an AAV9 encoding the mouse extracellular domain of Tie2 fused to a flag tag (AAV9:sTie2). AAV9 encoding the human serum albumin was used as control. One week after injection of the viral vector, mice were subjected to femoral artery ligation. Blood and adductor samples were harvested at baseline and 72 hours post-ischemia and used to sort CD115^+GFP^+ circulating monocytes and F4/80^+GFP^+ macrophages.
# [3] = system: RAOSMC (Rat Aortic Smooth Muscle Cells); experiment: SMC growth assay (WST-1) in coculture with PHD2+/- macrophages; format: cell-based; settings: AMD3100, imatinib, alone or combined
# Method: as §1
# PHD3 = PHD3 gene knockdown (qRT-PCR) in macrophages; format: cell-based, mice
# Method: Transduction and Transfection of Bone Marrow-Derived Macrophages and Lung Endothelial Cells: To express an inducible NF-κB responsive firefly luciferase reporter, commercially available lentiviral vector particles (LV) were used (Cignal Lenti NF-κB Reporter; SABiosciences). 2.5×10^5 bone marrow-derived macrophages and 10^5 primary lung endothelial cells (isolated as previously described (Mazzone et al., 2009, see above)) were seeded in a 24-well plate in DMEM 10% FBS or M199 20% FBS for eight hours. Cells were transduced with 10^8 TU/ml. Eight hours after transduction, the medium wash was replaced. After 48 hours, cells were stimulated with TNFα (20 ng/mL) for eight hours and the same amount of protein extract was read in a luminometer. For PHD3 silencing, siRNA oligonucleotides were designed using the Invitrogen online siRNA design tool (world wide web at maidesigner.invitrogen.com). The following sequences (sense strands) and target positions were used: PHD3 siRNA: 5′-[…]-3′ (SEQ ID NO:1); scramble siRNA:5′-[…]-3′ (SEQ ID NO:2). In brief, one day after the transduction of macrophages with LV, cells were transfected using Lipofectamine 2000 (Invitrogen) according to the manufacturer's instructions. Preparation of the oligonucleotide-Lipofectamine 2000 complexes was done as followed: 25 pmol siRNA oligonucleotide (stock: 20 μM) was diluted in 50 μl Opti-MEM I reduced serum medium. Lipofectamine 2000 (1.5 μl) was diluted in 50 μl Opti-MEM I reduced serum medium and incubated for five minutes at room temperature. siRNA oligonucleotides were gently mixed with Lipofectamine 2000 and allowed to incubate at room temperature for twenty minutes to form complexes. Just before transfection, the cell culture medium was removed and cells were rinsed twice with serum-free Opti-MEM I medium. The Lipofectamine 2000-siRNA oligonucleotide complexes were added to each well in 400 μl of serum-free Opti-MEM medium for five hours. Afterwards, cells were incubated in complete medium for 48 hours at 37° C. in a CO2 incubator and assayed for gene knockdown (qRT-PCR) and luciferase activity. […]
# NF-κB = experiment: NF-κB-responsive firefly luciferase reporter assay in bone marrow-derived macrophages; format: cell-based, mice
# Method: Transduction and Transfection of Bone Marrow-Derived Macrophages and Lung Endothelial Cells: To express an inducible NF-κB responsive firefly luciferase reporter, commercially available lentiviral vector particles (LV) were used (Cignal Lenti NF-κB Reporter; SABiosciences). 2.5×10^5 bone marrow-derived macrophages and 10^5 primary lung endothelial cells (isolated as previously described (Mazzone et al., 2009, see above)) were seeded in a 24-well plate in DMEM 10% FBS or M199 20% FBS for eight hours. Cells were transduced with 10^8 TU/ml. Eight hours after transduction, the medium wash was replaced. After 48 hours, cells were stimulated with TNFα (20 ng/mL) for eight hours and the same amount of protein extract was read in a luminometer. For PHD3 silencing, siRNA oligonucleotides were designed using the Invitrogen online siRNA design tool (world wide web at maidesigner.invitrogen.com). The following sequences (sense strands) and target positions were used: PHD3 siRNA: 5′-[…]-3′ (SEQ ID NO:1); scramble siRNA:5′-[…]-3′ (SEQ ID NO:2). In brief, one day after the transduction of macrophages with LV, cells were transfected using Lipofectamine 2000 (Invitrogen) according to the manufacturer's instructions. Preparation of the oligonucleotide-Lipofectamine 2000 complexes was done as followed: 25 pmol siRNA oligonucleotide (stock: 20 μM) was diluted in 50 μl Opti-MEM I reduced serum medium. Lipofectamine 2000 (1.5 μl) was diluted in 50 μl Opti-MEM I reduced serum medium and incubated for five minutes at room temperature. siRNA oligonucleotides were gently mixed with Lipofectamine 2000 and allowed to incubate at room temperature for twenty minutes to form complexes. Just before transfection, the cell culture medium was removed and cells were rinsed twice with serum-free Opti-MEM I medium. The Lipofectamine 2000-siRNA oligonucleotide complexes were added to each well in 400 μl of serum-free Opti-MEM medium for five hours. Afterwards, cells were incubated in complete medium for 48 hours at 37° C. in a CO2 incubator and assayed for gene knockdown (qRT-PCR) and luciferase activity. To assess if the increased NFkB activity observed in PHD2^+/− macrophages was dependent on the hydroxylase activity of PHD2, 48 hours before transduction, 4×10^6 bone marrow-derived macrophages were resuspended in 240 μl of Opti-MEM and were electroporated (250 V, 950 uF, ∝ Ω) with 7 μg of plasmids expressing a wild-type PHD2 (PHD2^wt) or a PHD2 containing a mutation at the catalytic site (PHD2^H313A).
# [4] = system: collateral branches, circulating TEMs; experiment: Acute PHD2 deletion by tamoxifen in HERosa26CreERT→WT mice: TEMs, collaterals, ischemic damage; format: in vivo
# Method: as §2
# PHD2 = PHD2 expression (qPCR) in bone marrow-derived monocyte/macrophage cultures upon cytokine stimulation; format: cell-based, mice; settings: for PHD2 transcripts: WT cultures, any of the concentrations tested (50 and 250 ng/mL)
# Method: Quantitative PCR Analysis: In order to investigate gene expression in pMØ, quantitative RT-PCR (qRT-PCR) was performed. After preparing pMØ, the cells were cultured in normoxic condition for twelve hours, and the RNA was extracted. To analyze the gene profile of adductor, gastrocnemius, and soleus muscle, tissues were collected at baseline or 24 hours/72 hours post-ischemia and RNA was extracted. Macrophages and ECs were freshly sorted from dissected adductors as described below and RNA was extracted. Quantitative RT-PCR was perfouned with commercially available or homemade primers and probes for the studied genes. The assay ID (Applied Biosystems, Foster City, Calif.) or the sequence of primers and probes (when homemade) are listed in Table 5. RNA levels of Tie-2, SDF1 and PDGFB after inhibition of NF-κB pathway were measured by qRT-PCR on pMØ exposed for twelve hours to 500 nM 6-amino-4-(4-phenoxyphenylethylamino)quinazoline. […] After 24 hours, cells were harvested for RNA extraction and cDNA preparation.
# [5] = tamoxifen 1 mg/mouse for five days
molecule,measurement,setting,value
Cc1ccc(NC(=O)c2ccc(CN3CCN(C)CC3)cc2)cc1Nc1nccc(-c2cccnc2)n1 [imatinib],migration of SMCs toward PHD2+/- macrophages,[1],not effective
same,increased formation of second generation collateral branches,[2],only partially prevented
same,third generation collaterals,[2],affected
same,number of collateral branch arteries,[2],not affected
same,increased SMC growth by PHD2+/- macrophages,[3],abrogated
5′-GCCGGCUGGGCAAAUACUAUGUCA-3′ (SEQ ID NO:1) [PHD3 siRNA],knockdown of PHD3 vs scramble control,PHD3; PHD2LysCre;lox/lox macrophages,37±0.01%
same,knockdown of PHD3 vs scramble control,PHD3; PHD2LysCre;lox/wt macrophages,60±0.04%
same,knockdown of PHD3 vs scramble control,PHD3; PHD2LysCre;wt/wt macrophages,63±0.03%
same,induction of NF-κB activity vs scramble control,NF-κB; PHD2LysCre;lox/lox macrophages,70%
same,induction of NF-κB activity vs scramble control,NF-κB; PHD2LysCre;lox/wt macrophages,14%
same,induction of NF-κB activity vs scramble control,NF-κB; PHD2LysCre;wt/wt macrophages,22%
CC/C(=C(\c1ccccc1)c1ccc(OCCN(C)C)cc1)c1ccccc1 [tamoxifen],ischemic damage,[4]; 72 hours after femoral artery ligation,greatly reduced
same,circulating TEMs,"[4]; 14 days after tamoxifen 1 mg/mouse for five days, vs vehicle",almost three-fold increased
same,"secondary collateral branches, abundance vs vehicle",[4]; [5],1.6 times
same,"tertiary collateral branches, abundance vs vehicle",[4]; [5],2.3 times
"MCP1: monocyte chemotactic protein-1, ischemia-induced cytokine",PHD2 transcripts,PHD2,did not affect
"SDF1: Stromal cell-derived factor 1, alpha chemokine",PHD2 transcripts,PHD2,did not affect
VEGF,PHD2 transcripts,PHD2,did not affect
c1cc(CN2CCCNCCNCCCNCC2)ccc1CN1CCCNCCNCCCNCC1 [AMD3100],migration of SMCs toward PHD2+/- macrophages,[1],not effective
same,increased formation of second generation collateral branches,[2],only partially prevented
same,third generation collaterals,[2],affected
same,number of collateral branch arteries,[2],not affected
same,increased SMC growth by PHD2+/- macrophages,[3],abrogated
B1,reduction of PHD2 levels,"PHD2; WT monocytes/macrophages, only at 50 ng/ml",15%
B2,PHD2 transcripts,PHD2,did not affect
B3,PHD2 transcripts,PHD2,did not affect

# Reference: US20130078224A1, “INDUCTION/MONITORING OF ARTERIOGENESIS USING SDF1 AND PDGFB OR INHIBITION OF PHD2” (LIFE SCIENCES RESEARCH PARTNERS VZW, priority 2010, published 2013)
